According to US6756374B2, “Diaminothiazoles having antiproliferative activity” (Hoffmann-La Roche Inc., priority 2001, dated 2004):

Assays:
cells = conditions: cited from earlier work
PKC = conditions: cited from earlier work
Cdk2 = Cdk2 (Homo sapiens, UniProt P24941); conditions: cited from earlier work
Cdk4 = Cdk4 (Homo sapiens, UniProt P11802); conditions: cited from earlier work
Cdk1 = Cdk1 (Homo sapiens, UniProt P06493); conditions: cited from earlier work
human cyclin D1-CDK4 = human cyclin D1-CDK4 (Homo sapiens, UniProt P11802); assay: FlashPlate kinase assay, cyclin D1-CDK4; assay type: biochemical; conditions: Rb protein substrate, 1 μM ATP
Sequence of human cyclin D1-CDK4 (P11802 whole entry): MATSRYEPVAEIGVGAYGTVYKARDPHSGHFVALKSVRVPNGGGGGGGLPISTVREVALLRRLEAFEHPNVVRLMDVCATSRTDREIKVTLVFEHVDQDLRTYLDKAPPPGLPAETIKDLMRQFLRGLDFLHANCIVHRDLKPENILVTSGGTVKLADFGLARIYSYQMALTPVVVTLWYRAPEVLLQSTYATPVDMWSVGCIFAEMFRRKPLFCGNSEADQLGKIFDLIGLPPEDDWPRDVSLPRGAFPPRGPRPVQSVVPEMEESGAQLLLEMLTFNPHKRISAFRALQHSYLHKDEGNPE
Sequence of human cyclin D1-CDK4 (P24385 whole entry partner): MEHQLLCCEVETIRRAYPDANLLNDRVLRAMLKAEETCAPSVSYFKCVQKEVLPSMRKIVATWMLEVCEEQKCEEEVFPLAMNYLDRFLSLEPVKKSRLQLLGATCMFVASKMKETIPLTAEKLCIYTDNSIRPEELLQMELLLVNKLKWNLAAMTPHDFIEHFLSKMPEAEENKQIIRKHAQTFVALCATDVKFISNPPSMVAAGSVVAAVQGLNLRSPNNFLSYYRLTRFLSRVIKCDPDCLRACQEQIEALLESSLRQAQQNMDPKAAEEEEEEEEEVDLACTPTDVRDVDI
Protocol: (§1) To determine inhibition of Cdk4, Cdk2 and Cdk1 activity, kinase assays were conducted using FlashPlate™ assays (NEN™-Life Science Products). FlashPlate assays were performed using recombinant human cyclin B-CDK1, human cyclin E-CDK2 or human cyclin D1-CDK4 complexes. GST-cyclinE (GST-cycE), CDK2, GST-cyclinB (GST-cycB), CDK1, GST-CDK4 and cyclin D1 (cycD1) cDNA clones in baculovirus vectors were provided by Dr. W. Harper at the Baylor College of Medicine, Houston, Tex.
(§2) The expression of the 62Kd protein was under the control of an IPTG inducible promoter in an M15 E. coli strain. Cells were lysed by sonication and purification was carried out by binding lysates at pH 8.0 to a Ni-chelated agarose column pretreated with 1 mM imidazole. The resin was then washed several times with incrementally decreasing pH buffers to pH 6.0, and eluted with 500 mM imidazole. Eluted protein was dialysed against 20 mM HEPES pH 7.5, 30% glycerol, 200 mM NaCl, and 1 mM DTT. Purified Rb fusion protein stocks were quantitated for protein concentration, aliquoted, and stored at −70° C.
(§3) For all three kinase assays reported herein, 96-well FlashPlates were coated with Rb protein at 10 μg/ml, using 100 μl per well. Plates were incubated at 4° C. overnight or at room temperature for 3 hours on a shaker. To control for nonspecific phosphorylation, one row of wells was coated with 100 μl/well coating buffer (20 mM HEPES, 0.2 M NaCl). Plates were then washed twice with wash buffer (0.01% Tween 20 in phosphate-buffered saline). Compounds to be tested (“test compounds”) were added to the wells at 5×final concentration. Reactions were initiated by immediate addition of 40 μl reaction mix (25 mM HEPES, 20 mM MgCl2, 0.002% Tween 20, 2 mM DTT, 1 μM ATP, 4 nM ^33P-ATP) and a sufficient amount of enzyme to give counts that were at least 10-fold above background. Plates were incubated at room temperature on a shaker for 30 minutes. Plates were washed four times with the wash buffer, sealed, and counted on the TopCount scintillation counter (Packard Instrument Co., Downers Grove, Ill.]. The percent inhibition of Rb phosphorylation, which is a measure of the inhibition of CDK activity, was determined according to the following formula: [formula]
(§4) where “test compound” refers to the average counts per minute of the test duplicates, “nonspecific” refers to the average counts per minute when no CyclinD/Cdk4, etc., was added, and “total” refers to the average counts per minute when no compound was added.

HCT116 = assay: Tetrazolium dye (MTT) proliferation assay; assay type: cell-based; conditions: Homo sapiens, HCT-116; HCT116 colorectal carcinoma cell line
Protocol: The cell line used was HCT116, a colorectal carcinoma cell line obtained from the American Type Cell Culture Collection (ATCC;
Rockville, Md.). The cells were grown in McCoy's 5A medium supplemented with 10% FCS and L-glutamine.
Cells were plated at the appropriate seeding density to give logarithmic growth over the course of the assay in a 96-well tissue culture plate. Plates were incubated overnight at 37° C. in a humidified incubator with 5% CO2. The next day, test compounds were serially diluted to four times the final concentration in the appropriate medium containing 1.2% DMSO. One-fourth final volume of each dilution was added in duplicate to the plates containing cells. The same volume of 1.2% DMSO in medium was added to a row of “control wells” such that the final concentration of DMSO in each well was 0.3%. Wells to which no cells were added served as the “blank.” Wells to which no inhibitor was added served as “no inhibitor control.” The plates were) returned to the incubator, and at set time points (determined by their growth curves) plates were analyzed as described below.
3-(4,5-dimethylthiazole-2-yl)-2,5-diphenyl-2H-tetrazolium bromide (thiazolyl blue; MTT; Sigma) was added to each well to yield a final concentration of 1 mg/ml. Plates were returned to the incubator for 2.5-3 hours at 37° C. The MTT-containing medium was removed and the resulting formazan metabolite was solubilized in 100% ethanol with shaking for 15 minutes at room temperature. Absorbance readings were taken in a microtiter plate reader (Dynatech and Molecular Devices plate readers were used interchangeably) at a wavelength of 570 nm with a 650 nm reference. Percent inhibition (% INH) is calculated by subtracting the absorbance of the blank well from all wells, then subtracting the ratio of the average absorbance of each test duplicate (SAVE) by the average of the controls (CAVE) from 1.00. The final number is then multiplied by 100 (% INH=(1.00−SAVE/CAVE)×100).

human cyclin E-CDK2 = human cyclin E-CDK2 (Homo sapiens, UniProt P24941); assay: FlashPlate kinase assay, cyclin E-CDK2; assay type: biochemical; conditions: Rb protein substrate, 1 μM ATP
Protocol: as §1, §2, §3, §4

human cyclin B-CDK1 = human cyclin B-CDK1 (Homo sapiens, UniProt P06493); assay: FlashPlate kinase assay, cyclin B-CDK1; assay type: biochemical; conditions: Rb protein substrate, 1 μM ATP
Sequence of human cyclin B-CDK1 (P06493 whole entry): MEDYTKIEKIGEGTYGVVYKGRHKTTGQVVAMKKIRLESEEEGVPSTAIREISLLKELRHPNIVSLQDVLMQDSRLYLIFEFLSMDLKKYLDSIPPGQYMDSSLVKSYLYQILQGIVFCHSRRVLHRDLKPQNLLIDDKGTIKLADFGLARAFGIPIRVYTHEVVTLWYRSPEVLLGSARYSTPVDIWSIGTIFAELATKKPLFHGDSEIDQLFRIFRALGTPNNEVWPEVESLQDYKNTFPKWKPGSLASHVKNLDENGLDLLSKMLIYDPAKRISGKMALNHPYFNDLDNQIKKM
Sequence of human cyclin B-CDK1 (P14635 whole entry partner): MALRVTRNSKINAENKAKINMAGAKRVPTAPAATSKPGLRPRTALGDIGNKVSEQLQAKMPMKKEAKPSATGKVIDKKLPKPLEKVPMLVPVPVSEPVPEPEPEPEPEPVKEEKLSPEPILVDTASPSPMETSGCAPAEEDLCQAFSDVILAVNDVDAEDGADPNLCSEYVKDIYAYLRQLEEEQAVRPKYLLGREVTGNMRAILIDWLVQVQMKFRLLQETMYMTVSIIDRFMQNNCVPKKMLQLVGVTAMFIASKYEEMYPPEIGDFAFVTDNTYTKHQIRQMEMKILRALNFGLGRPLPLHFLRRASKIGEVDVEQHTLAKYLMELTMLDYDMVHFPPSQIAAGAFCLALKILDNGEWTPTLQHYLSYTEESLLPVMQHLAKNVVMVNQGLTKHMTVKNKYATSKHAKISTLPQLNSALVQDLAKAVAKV
Protocol: as §1, §2, §3, §4

Sequence of Cdk4 (P11802 whole entry, species assumed): as the sequence (P11802 whole entry) above
Sequence of Cdk4 (P24385 whole entry partner, species assumed): as the sequence (P24385 whole entry partner) above
Sequence of Cdk1 (P06493 whole entry, species assumed): as the sequence (P06493 whole entry) above
Sequence of Cdk1 (P14635 whole entry partner, species assumed): as the sequence (P14635 whole entry partner) above

| Compound | IC50 (human cyclin D1-CDK4) | IC50 (HCT116) | IC50 (human cyclin E-CDK2) | IC50 (human cyclin B-CDK1) | cell cycle block (cells) | inhibition of PKC (PKC) | inhibition of Cdk2 (Cdk2) | inhibition of Cdk4 (Cdk4) | inhibition of Cdk1 (Cdk1) |
| --- | --- | --- | --- | --- | --- | --- | --- | --- | --- |
| CN1CC[C@H](c2c(O)cc(O)c3c(=O)cc(-c4ccccc4Cl)oc23)[C@H](O)C1 [Flavopiridol] |  |  |  |  | blocks cells in both G1 and G2 phases | weaker inhibitor | inhibits | inhibits | inhibits |
| CN1CCN(c2ccc(Nc3nc(N)c(C(=O)c4ccc(N5CCCC5)c(N)c4)s3)cc2)CC1 [Example 65] | 0.026 µM | 1.2 µM | 7.4 µM | 2.2 µM |  |  |  |  |  |
| COc1ccc(C(=O)c2sc(Nc3ccc(N4CCN(C)CC4)cc3)nc2N)cc1 [Example 32, [4-Amino-2-[[4-(4-methyl-1-piperazinyl)phenyl]amino]-5-thiazolyl](4-methoxyphenyl)methanone] | 0.08 µM | 5.6 µM | 9.6 µM | 3.9 µM |  |  |  |  |  |
| CN1CCN(c2ccc(Nc3nc(N)c(C(=O)c4ccc(O)cc4)s3)cc2)CC1 [Example 30, [4-Amino-2-[[4-(4-methyl-1-piperazinyl)phenyl]amino]-5-thiazolyl]-(4-hydroxyphenyl)methanone] | 0.053 µM | 3.6 µM | 2.3 µM | 2.4 µM |  |  |  |  |  |
| COc1cccc(C(=O)c2sc(Nc3ccc(N4CCN(C)CC4)cc3)nc2N)c1 [Example 36, [4-Amino-2-[[4-(4-methyl-1-piperazinyl)phenyl]amino]-5-thiazolyl](3-methoxyphenyl)methanone] | 0.025 µM | 2.8 µM | 5.4 µM | 2.1 µM |  |  |  |  |  |
| Nc1nc(Nc2ccc(N3CCNCC3)cc2)sc1C(=O)c1ccc(N2CCCC2)cc1 [Example 55, [4-Amino-2-[[4-(1-piperazinyl)phenyl]amino]-5-thiazolyl][4-(1-pyrrolidinyl)phenyl]methanone] | 0.05 µM | 3.8 µM | 3.2 µM | 4.3 µM |  |  |  |  |  |
| COc1cc(OC)cc(C(=O)c2sc(Nc3ccc(N4CCN(C)CC4)c(F)c3)nc2N)c1 [Example 39, [4-Amino-2-[[3-fluoro-4-(4-methyl-1-piperazinyl)phenyl]amino]-5-thiazolyl](3,5-dimethoxyphenyl)methanone] | 0.021 µM | 3.6 µM | 7.9 µM | 2.8 µM |  |  |  |  |  |

Continued by falling IC50 (human cyclin D1-CDK4), values first:

| IC50 (human cyclin D1-CDK4) | IC50 (HCT116) | IC50 (human cyclin E-CDK2) | IC50 (human cyclin B-CDK1) | Compound | cell cycle block (cells) | inhibition of PKC (PKC) | inhibition of Cdk2 (Cdk2) | inhibition of Cdk4 (Cdk4) | inhibition of Cdk1 (Cdk1) |
| --- | --- | --- | --- | --- | --- | --- | --- | --- | --- |
| 0.019 µM | 3.1 µM | 2.4 µM | 3.9 µM | CN1CCN(c2ccc(Nc3nc(N)c(C(=O)c4ccc(N5CCCC5)c([N+](=O)[O-])c4)s3)cc2)CC1 [Example 58, [4-Amino-2-[[4-(4-methyl-1-piperazinyl)phenyl]amino]-5-thiazolyl][3-nitro-4-(1-pyrrolidinyl)phenyl]methanone] |  |  |  |  |  |
| 0.017 µM | 4.9 µM | 7.9 µM | 5.9 µM | COCCNc1ccc(C(=O)c2sc(Nc3ccc(N4CCN(C)CC4)cc3)nc2N)cc1[N+](=O)[O-] [Example 60, [4-Amino-2-[[4-(4-methyl-1-piperazinyl)phenyl]amino]-5-thiazolyl][3-nitro-4-[(2-methoxyethyl)amino]phenyl]methanone] |  |  |  |  |  |
| 0.014 µM | 3 µM | 3.1 µM | 1.3 µM | COc1cccc(C(=O)c2sc(Nc3ccc(N4CCN(C)CC4)c(F)c3)nc2N)c1 [Example 40, [4-Amino-2-[[3-fluoro-4-(4-methyl-1-piperazinyl)phenyl]amino]-5-thiazolyl](3-methoxyphenyl)methanone] |  |  |  |  |  |
| 0.013 µM | 0.7 µM | 0.2 µM | 0.3 µM | Nc1nc(Nc2ccc(N3CCNCC3)cc2)sc1C(=O)c1cccc(F)c1 [Example 54, [4-Amino-2-[[4-(1-piperazinyl)phenyl]amino]-5-thiazolyl](3-fluorophenyl)methanone] |  |  |  |  |  |
| 0.01 µM | 13.3 µM | 7.1 µM | 2.3 µM | CCN(CC)c1ccc(C(=O)c2sc(Nc3ccc(N4CCN(C(C)=O)CC4)cc3)nc2N)cc1 [Example 48, 1-Acetyl-4-[4-[[4-amino-5-[4-(diethylamino)benzoyl]-2-thiazolyl]amino]phenyl]piperazine] |  |  |  |  |  |
| 0.008 µM | 9.2 µM | 6.5 µM | 6.1 µM | CCN(CC)c1ccc(C(=O)c2sc(Nc3ccc(N4CCN(C)CC4)cc3)nc2N)cc1 [Example 33, [4-Amino-2-[[4-(4-methyl-1-piperazinyl)phenyl]amino]-5-thiazolyl][4-(diethylamino)phenyl]methanone] |  |  |  |  |  |
| 0.008 µM | 1.8 µM | 1.8 µM | 1.1 µM | COc1ccc(C(=O)c2sc(Nc3ccc(N4CCN(C)CC4)cc3)nc2N)cc1F [Example 35, [4-Amino-2-[[4-(4-methyl-1-piperazinyl)phenyl]amino]-5-thiazolyl](3-fluoro-4-methoxyphenyl)methanone] |  |  |  |  |  |
